Measurements: US7074824B2, “Pharmaceutical compositions containing beta-lapachone, or derivatives or analogs thereof, and methods of using same” (Arqule, Inc., priority 2001, dated 2006)
≈ marks a conversion by molar mass, not a printed value.

Assays:
[1] = Solubility in water and in 40% (w/v) HPBCD solution by UV absorbance; format: physicochemical; settings: for solubility at 1 h: thermodynamic from solid
[2] = biological target: human DNA Topoisomerases II (Homo sapiens, UniProt P11388); settings: cited from earlier work
[3] = tested on: Human ovarian cancer cells (36M2); test: Human ovarian cancer xenograft model, β-lapachone in Lipiodol and Taxol®; format: in vivo, athymic female nude mice; settings: i.p., 10 cycles
Protocol: Human ovarian cancer cells (36M2, originally isolated from malignant ascites) were inoculated by i.p. injection into athymic female nude mice 24 h after irradiation. In this model, metastatic foci form approximately 1 week after inoculation, and tumor nodules of the peritoneum and malignant ascites develop in 4–5 weeks. Ten days after tumor inoculation (10×10^6 cells), treatment regimens were initiated. The control group was treated with vehicle alone. In each typical treatment cycle, the β-lapachone alone group was treated with 25–50 mg/kg i.p. of β-lapachone in Lipiodol solution and the Taxol® alone group was treated at 1 mg/kg i.p. (Taxol® formulation diluted in Lipiodol), both followed 24 h later by i.p. injection of vehicle. In the combination group, nude mice were treated with β-lapachone at 25–50 mg/kg, followed 24 h later by Taxol® at 1 mg/kg. All groups were treated for 10 cycles, with a 1-day break between each cycle. […] Host toxicity was evaluated by general appearance and body weight.

[4] = Solubility of β-lapachone in aqueous HPBCD solutions (heated to 70° C., filtered, HPLC); format: physicochemical
Protocol: A β-lapachone/HPBCD solution was prepared without prior solubilization of the β-lapachone in ethanol solution. β-lapachone was combined with aqueous solutions of HPBCD in varying concentrations and the mixtures were heated to 70° C., then allowed to cool to room temperature. The cooled solutions were filtered (0.22μ), and the amount of the solubilized β-lapachone was measured by HPLC analysis.

[5] = Relative solubility of 14C-labeled β-lapachone in aqueous solutions of solubilizing agents; format: physicochemical
Protocol: In light of the above, two different strategies were used to enhance β-lapachone solubility in aqueous solution. First, β-lapachone was treated with metal chelating agents, such as calcium and magnesium, to form soluble complexes; second, β-lapachone was treated with the solubilizing agents β-cyclodextrin and γ-cyclodextrin to form soluble inclusion complexes. In order to evaluate these four reagents, ^14C-labeled β-lapachone in a small volume of ethanol was added to aqueous solutions of the reagents (or to PBS buffer as a control), then the relative solubility of β-lapachone in each of the solutions was measured in terms of radioactivity remaining in the supernatant after centrifugation.
Specifically, to individual 1.5 ml Eppendorf tubes containing 900 μl of PBS buffer were added the following: 8 mM CaCl2 in PBS buffer, 8 mM of MgCl2 in PBS buffer, 8 mM β-cyclodextrin in PBS buffer, and 8 mM γ-cyclodextrin in PBS buffer. 10 μl of C^14 labeled β-lapachone (40,000 CPM, 0.55 μg) in 75% ethanol was then added to each tube. After vortexing and centrifuging at 13,000 rpm for 10 min, 100 μl of the supernatant solution was counted for radioactivity using a Beckman Scintillation Counter. […] After vortexing and centrifuging at 13,000 rpm for 10 min, 100 μl of the supernatant solution was counted again for radioactivity. […]

[6] = tested on: human cancer cell lines; settings: single agent, typical range; read-out: antineoplastic activity (IC50); cited from earlier work
[7] = tested on: human carcinoma cells; test: Colony formation assay of β-lapachone combined with Taxol®; format: cell-based; settings: 4 h exposure, colonies scored after 10–20 days; ovarian, breast, prostate, melanoma, lung and pancreatic cell lines, FIG. 4
Protocol: In these studies, exponentially growing cells were seeded at 1,000 cells per well in six-well plates and allowed to attach for 48 h. β-lapachone and/or Taxol®, solubilized in DMSO, were added to the wells. Control wells were treated with equivalent volumes of DMSO. After 4 h cells were rinsed and fresh medium was added. Cultures were observed daily for 10–20 days and then were fixed and stained. Colonies of greater than 30 cells were scored as survivors.

Chain of human DNA Topoisomerases II (P11388 whole entry): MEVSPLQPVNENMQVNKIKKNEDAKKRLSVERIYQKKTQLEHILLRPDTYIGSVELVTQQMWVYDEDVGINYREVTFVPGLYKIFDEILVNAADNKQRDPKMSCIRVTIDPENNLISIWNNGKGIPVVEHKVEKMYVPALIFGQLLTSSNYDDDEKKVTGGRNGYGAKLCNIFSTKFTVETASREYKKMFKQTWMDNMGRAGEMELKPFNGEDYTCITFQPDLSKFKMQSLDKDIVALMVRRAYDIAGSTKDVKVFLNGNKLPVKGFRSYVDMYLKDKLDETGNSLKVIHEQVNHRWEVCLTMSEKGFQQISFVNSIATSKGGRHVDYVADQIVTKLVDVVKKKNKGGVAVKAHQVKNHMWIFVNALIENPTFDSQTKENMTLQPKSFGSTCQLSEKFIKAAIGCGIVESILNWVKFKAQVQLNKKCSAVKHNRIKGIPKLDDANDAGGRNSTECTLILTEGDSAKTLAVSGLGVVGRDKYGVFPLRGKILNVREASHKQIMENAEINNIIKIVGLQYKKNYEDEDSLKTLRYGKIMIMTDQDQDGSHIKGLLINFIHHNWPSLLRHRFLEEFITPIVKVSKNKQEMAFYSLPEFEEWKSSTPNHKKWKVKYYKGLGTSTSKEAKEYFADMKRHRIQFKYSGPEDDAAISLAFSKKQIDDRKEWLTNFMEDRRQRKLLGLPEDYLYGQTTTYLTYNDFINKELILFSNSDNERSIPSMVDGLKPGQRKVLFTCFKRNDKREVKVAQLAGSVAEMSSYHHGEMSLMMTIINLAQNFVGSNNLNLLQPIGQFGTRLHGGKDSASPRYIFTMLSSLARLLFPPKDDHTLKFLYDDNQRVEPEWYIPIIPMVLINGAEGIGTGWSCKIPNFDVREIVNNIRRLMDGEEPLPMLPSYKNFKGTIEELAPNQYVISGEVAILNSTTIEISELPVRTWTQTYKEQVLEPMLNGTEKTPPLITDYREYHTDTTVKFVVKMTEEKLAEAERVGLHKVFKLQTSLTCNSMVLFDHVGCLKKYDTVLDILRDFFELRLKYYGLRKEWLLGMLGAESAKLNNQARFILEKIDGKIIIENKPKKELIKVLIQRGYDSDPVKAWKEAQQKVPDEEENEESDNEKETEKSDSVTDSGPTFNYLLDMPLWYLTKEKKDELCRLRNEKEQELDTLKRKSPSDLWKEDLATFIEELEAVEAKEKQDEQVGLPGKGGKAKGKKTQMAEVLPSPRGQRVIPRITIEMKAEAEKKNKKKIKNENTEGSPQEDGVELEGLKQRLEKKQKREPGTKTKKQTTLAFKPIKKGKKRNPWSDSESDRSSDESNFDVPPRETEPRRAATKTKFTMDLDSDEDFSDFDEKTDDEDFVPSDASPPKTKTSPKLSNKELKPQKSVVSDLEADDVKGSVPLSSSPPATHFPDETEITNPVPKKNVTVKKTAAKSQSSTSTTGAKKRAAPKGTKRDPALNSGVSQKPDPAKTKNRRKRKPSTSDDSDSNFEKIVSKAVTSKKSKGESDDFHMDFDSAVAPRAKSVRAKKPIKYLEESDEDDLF

In the case of `CC1(C)CCC2=C(O1)c1ccccc1C(=O)C2=O` [β-lapachone], the “Solubility Enhancement” value ([1]; 1 h) is reported as 323 −Fold, the solubility at 1 h ([1]; aqueous with cosolvent or surfactant or cyclodextrin) is reported as 14000 µg/mL (≈ 57.8 mM) and the solubility at 1 h ([1]; water) is reported as 43 µg/mL (≈ 0.177 mM). For the same molecule, the in vitro inhibition [2] was “potent in vitro inhibition”, the “decrease in tumor number versus control” value ([3]; assessed day 50, β-lapachone 25–50 mg/kg in Lipiodol, Taxol® 1 mg/kg) was about 75% and the “size of the tumor nodules and amount of ascites” value ([3]; laparotomy at day 50) was “considerable reduction in the size of the tumor nodules and the amount of ascites”. For the same molecule, the “β-lapachone (highest conc.)” value ([4]; 10% HPBCD in water) was 3.1 mg/mL, the “β-lapachone (highest conc.)” value ([4]; 20% HPBCD in water) was 7.4 mg/mL and the “β-lapachone (highest conc.)” value ([4]; 30% HPBCD in water) was 10.8 mg/mL. The “β-lapachone (highest conc.)” value ([4]; 40% HPBCD in water) was 15.8 mg/mL, the “β-lapachone present in the supernatant” value ([5]; 0.5 μg β-lapachone added, all five aqueous solutions (PBS, CaCl2, MgCl2, β-cyclodextrin, γ-cyclodextrin)) was about 100% and the “β-lapachone retained in the supernatant” value ([5]; 600 μg β-lapachone added, 8 mM β-cyclodextrin in PBS buffer (only this solution)) was “more than 50%”. The IC50 [6] was 1 to 10 µM and the “inhibition of cancer cell survival (colony formation)” value [7] was “much less effective”.
